The source made the active and inactive calls.
Columns and labels:
Type in all cases: functional, organism-based
Rattus norvegicus [1] = assay: Anti-allodynic activity in rat model of STZ induced diabetic neuropathy assessed as reduction in mechanical hyperalgesia by measuring increase in weight bearing at 1 mg/kg, po measured after 30 min by paw pressure test
Rattus norvegicus [2] = assay: Anti-allodynic activity in rat model of STZ induced diabetic neuropathy assessed as reduction in mechanical allodynia by measuring increase in paw withdrawal threshold at 1 mg/kg, po measured after 30 min by electronic von frey test
Mus musculus = assay: Anti-allodynic activity in mouse model of CCI induced neuropathic pain assessed as increase in paw withdrawal threshold at 3 mg/kg, po by static von frey test
Rattus norvegicus [3] = assay: Anti-allodynic activity in rat model of STZ induced diabetic neuropathy assessed as reduction in mechanical allodynia by measuring increase in paw withdrawal threshold at 25 mg/kg, po measured for 90 min by electronic von frey test
Rattus norvegicus [4] = assay: Anti-allodynic activity in rat model of STZ induced diabetic neuropathy assessed as reduction in mechanical hyperalgesia by measuring increase in weight bearing at 25 mg/kg, po measured after 90 min by paw pressure test
Rattus norvegicus [5] = assay: Analgesic activity in rat acute pain model at 1 to 10 mg/kg by hot plate test; conditions: dose 1-10 mg/kg
Rattus norvegicus [6] = assay: Analgesic activity in rat acute pain model at 1 to 10 mg/kg by tail flick test; conditions: dose 1-10 mg/kg
Rattus norvegicus [7] = assay: Analgesic activity in rat acute pain model at 3 mg/kg by hot plate test
Rattus norvegicus [8] = assay: Analgesic activity in rat acute pain model at 3 mg/kg by tail flick test

Compound: CN1CCc2c(c3cccc4c3n2CCc2ccccc2-4)C1
- Activity (Rattus norvegicus [1]): Active
- Activity (Rattus norvegicus [2]): Active
- Activity (Mus musculus): Active
- Activity (Rattus norvegicus [3]): Active
- Activity (Rattus norvegicus [4]): Active
- Activity (Rattus norvegicus [5]): inactive
- Activity (Rattus norvegicus [6]): inactive

Compound: CN1CC[C@]23c4c5ccc(O)c4O[C@H]2[C@@H](O)C=C[C@H]3[C@H]1C5
- Activity (Rattus norvegicus [7]): Active
- Activity (Rattus norvegicus [8]): Active
